Assay results from patent US11529350B2, “Tyrosine kinase non-receptor 1 (TNK1) inhibitors and uses thereof” (Sumitomo Pharma Oncology, Inc., priority 2019, dated 2022).

Tests used:
[1] = test system: L540 xenografts; assay: In vivo efficacy study in subcutaneous L540 Hodgkin's lymphoma CDX model; conditions: for tumor growth inhibition: oral gavage daily for 21 days
Protocol: An efficacy study was performed using Example No. 13 in a L540 CDX mouse model. Animals were NOD-SCID (#394) female mice 6-8 weeks of age from Charles River Laboratories (CRL). Example No. 13 was formulated weekly using Tween 80:Ethanol:PEG400:Water (2:10:30:58 v/v) as a vehicle. There were four treatment groups (n=10, 40 animals in total): a vehicle/control group, a group treated with 10 mg/kg Example No. 13, a group treated with 25 mg/kg Example No. 13 and a group treated with 50 mg/kg Example No. 13. When the average tumor volume reached 80-120 mm^3, animals were randomized and dosed daily for 21 days via oral gavage, 10 ml/kg dose volume. […] No tissues were collected. IDEXX pathogen test was performed prior to the cell culture; Corynebacterium bovis, Corynebacterium sp. (HAC2), EBV, HCMV, Hepatitis B, Hepatitis C, HIV1, HIV2, HPV16, HPV18, HTLV1, HTLV2, LDEV, and Mycoplasma sp. were tested, and all results were negative. Tumor volume measurements are provided as mean absolute tumor volume +/−SEM.

[2] = test system: TNK1 and STAT5 phosphorylation in L540 tumor tissue; assay: In vivo single dose PD study, L540 xenograft, Western blot; design: species or system mouse; conditions: L540 tumor samples, 50 mg/kg
Protocol: The objective of this study was to assess in vivo pharmacodynamic activity of Example No. 13 in a subcutaneous xenograft model of Hodgkin's lymphoma in female NOD SCID mice, aged 6-8 weeks. There were 4 groups (and a total of 84 mice): Example No. 13 at 50 mg/kg, 25 mg/kg, or 10 mg/kg (n=27 mice for each dose), and vehicle (n=3 mice). When the average tumor volume reached 300 mm^3, animals were randomized and dosed once p.o. at a 10 mL/kg dose volume. Blood and tumors were collected at nine different time points.
Example No. 13 was formulated in Tween 80 (0.2 mL), ethanol (1 mL), PEG400 (3 mL), and water (5.8 mL).
In this study, protein expression was analyzed by Western blotting method. Tissue samples were acquired as part of a single dose PK/PD study. Equal amounts of tumor were placed into a bead tube, lysis buffer (RIPA buffer (Sigma No. 0278), Halt CocktaiL (ThermoFisher No. 78440), EDTA (ThermoFisher No. 1861274), PhosSTOP (Sigma No. 04906845001), cOmplete (Sigma No. 11697498001) and Inhibitor Cocktail 3 (Sigma No. P0044-1ML)) was added, and samples were homogenized using bead homogenizer (2×20 s at 4.5 m/s (Fisherbrand Bead Mill 24 Homogenizer, Fisher Scientific)). […]
Protein concentration was determined using BCA kit (Invitrogen No. 23225). Equal amounts of protein were pooled from each treatment group, and concentration was measured again in the pooled samples. […]

[3] = test system: A549 cells; assay: Combination with bortezomib, A549 cell confluency (Incucyte); type: cell-based; conditions: Example No. 13 10 nM + Bortezomib 1 nM, over 200 hours
Protocol: A549 cells were seeded in log phase (e.g., at 40-60% confluency) in a well plate. Drug treatments were: no drug treatment, DMSO, bortezomib at 50 nM, 10 nM, 5 nM, 2 nM or 1 nM, Example No. 13 at 10 nM, and bortezomib 50 nM, 10 nM, 5 nM, 2 nM or 1 nM combined with Example No. 13 at 10 nM. The DMSO concentrations were kept constant (including DMSO control) to control for any confounding DMSO toxicity.
Drug addition protocol: On day 1, cells were seeded at 60,000 cells/well, and incubated for 24 hours to allow adherence. On day 2, media was aspirated and replaced with 500 μl of the drug media preparations described below in correlating wells. The plates were placed in Incucyte for 7-14 days, and cell confluency was measured every 2 hours. […]

Structure (SMILES): COc1cc(N2CCN(C)CC2)c(Cl)cc1Nc1ncc(Cl)c(Nc2cccnc2N2CCCC2=O)n1 [Example No. 13, 1-(3-((5-chloro-2-((5-chloro-2-methoxy-4-(4-methylpiperazin-1-yl)phenyl)amino)pyrimidin-4-yl)amino)pyridin-2-yl)pyrrolidin-2-one]
- tumor growth inhibition ([1]; 10 mg/kg, at Day 21): 35.17%
- tumor growth inhibition ([1]; 25 mg/kg, at Day 31): 74.20%
- body weight loss ([1]; 50 mg/kg): moderate
- animals found dead on Day 7, possibly due to drug toxicity ([1]; 50 mg/kg group (n=10)): Two
- tumor growth inhibition ([1]; 50 mg/kg, at Day 31): 86.5%
- continued tumor growth inhibition post-dosing ([1]; 25 and 50 mg/kg, dosing stopped on day 21): up to 10 days
- earliest time at which inhibition of STAT5 phosphorylation was observed after dosing [2]: 15 to 30 min
- cell growth inhibition, combination [3]: approximately 50%
